Key:
[1] = cited from earlier work
[2] = Population pharmacokinetic model (NONMEM) of vancomycin plasma concentration-time data in surgical patients
Procedure: Only patients who underwent a major surgical procedure and were above the age of 18 years were included in the study. […] The dose selection and duration of infusion were at the discretion of the attending medical practitioners. […] Patient demographics, including age, weight, sex, type of disease, and serum creatinine (SCR) were recorded from patient files, and creatinine clearance (CRCL) was calculated using the Cockcroft and Gault equation ([Cockcroft and Gault, 1976]).
Briefly, separation was carried out using a C18 column (125 mm × 4.6 mm, 5 µm) with UV detection at 205 nm. The mobile phase was a combination of buffer (50 mM ammonium dihydrogen phosphate) at pH 2.2 and acetonitrile (88:12 v/v). The method was linear over the concentration range of 0.25–60 mg/l.
The population pharmacokinetic model was developed using nonlinear mixed effect modeling (NONMEM version 7.4.4) software provided by Icon Clinical Research LLC, New York, NY, USA, along with the Perl-speaks-NONMEM (PsN) toolkit ([Lindbom et al., 2005]). The execution and management of the model as well as report generation were performed with the aid of Pirana (Certara, Princeton, NJ, USA) ([Keizer et al., 2011]). The actual process of modeling began with the development of one-compartment and two-compartment base models using the first-order conditional estimation method with interaction (FOCE-I) to obtain pharmacokinetic parameter estimates without any covariates. […] The exponential random-effect model was used to describe the between-subject variability (BSV) on pharmacokinetic (PK) parameters, while additive, proportional, and combined residual error models were tested to describe the residual error between the observed and predicted concentrations of vancomycin.
The influence of different covariates (age, sex, WT, SeCR, and CRCL) on CL and Vd was determined by stepwise covariate modeling (SCM) in which the covariates were included in the model by forward inclusion and backward elimination processes. […]

[3] = median of 1,000 bootstrap estimates

SMILES: CN[C@H](CC(C)C)C(=O)N[C@H]1C(=O)N[C@@H](CC(N)=O)C(=O)N[C@H]2C(=O)N[C@H]3C(=O)N[C@H](C(=O)N[C@H](C(=O)O)c4cc(O)cc(O)c4-c4cc3ccc4O)[C@H](O)c3ccc(c(Cl)c3)Oc3cc2cc(c3O[C@@H]2O[C@H](CO)[C@@H](O)[C@H](O)[C@H]2O[C@H]2C[C@](C)(N)[C@H](O)[C@H](C)O2)Oc2ccc(cc2Cl)[C@H]1O [Vancomycin]
- Vancomycin CL in obese patients ([1]; obese patients, ref Blouin et al., 1982, Bauer et al., 1998, Adane et al., 2015): 6.54 to 11.8 L/h
- Reported CL values in other studies ([1]; ref Buelga et al., 2005, Llopis-Salvia and Jiménez-Torres, 2006, Staatz et al., Thomson et al., 2009, Tanaka et al., 2010, Udy et al., 2013, Escobar et al., 2014, Usman et al., 2018): 1.08 to 2.99 L/h
- Vd, lower end of reported range ([1]; ref Escobar et al., 2014): 11.8 L
- Vd, upper end of reported range ([1]; ref Lin et al., 2016): 101 L
- Fraction of drug excreted via renal elimination ([1]; ref Matzke et al., 1984, Rodvold et al., 1988, Ducharme et al., 1994): 80%–90%
- CL, bootstrap estimate [2, 3]: 2.46 L/h
- V, bootstrap estimate [2, 3]: 22.7 L
- V (volume of distribution), final estimate ([2]; one-compartment final model, 58 patients): 22.6 L
